# What was measured:
# Assay in all cases: relative viability (nuclei count vs DMSO), 5 days (fraction); higher = more cells survive
# [1] = compound: Cc1ccc2nc(NCCN)c3ncc(C)n3c2c1 + CCNC(=O)c1noc(-c2cc(C(C)C)c(O)cc2O)c1-c1ccc(CN2CCOCC2)cc1 [Luminespib] (partner 0.01 µM)
# Method in brief: (§1)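 Lung cancer cell lines in 1536-well plates got either a single drug or a fixed anchor-drug dose together with five library-drug doses (not always all listed) in √10 steps, by pin tool, on the day after seeding. Nuclei were counted after 5 days, and relative viability is the treated-to-vehicle ratio of nuclei counts. Values are medians of duplicate plates.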
# [2] = compound: Cc1ccc2nc(NCCN)c3ncc(C)n3c2c1 + N=C(N)NC(=N)NCCc1ccccc1 [Phenformin] (partner 250 µM)
# Method in brief: as §1
# [3] = compound: Cc1ccc2nc(NCCN)c3ncc(C)n3c2c1 + Nc1ncn([C@H]2C[C@H](O)[C@@H](CO)O2)c(=O)n1 [Decitabine] (partner 2 µM)
# Method in brief: as §1
# [4] = compound: O=C(/C=C/c1ccccc1)NC(NC(=S)Nc1cccc2cccnc12)C(Cl)(Cl)Cl [Salubrinal] + C[C@]1(O)C[C@@H](c2nc(-c3ccc4ccc(-c5ccccc5)nc4c3)c3c(N)nccn32)C1 [Linsitinib] (partner 1 µM)
# Method in brief: as §1
Cell Line,relative viability ([1]; first compound 0.04 µM),relative viability ([1]; first compound 0.1265 µM),relative viability ([1]; first compound 0.4 µM),relative viability ([1]; first compound 1.265 µM),relative viability ([1]; first compound 4 µM),relative viability ([2]; first compound 0.04 µM),relative viability ([2]; first compound 0.1265 µM),relative viability ([2]; first compound 0.4 µM),relative viability ([2]; first compound 1.265 µM),relative viability ([2]; first compound 4 µM),relative viability ([3]; first compound 0.04 µM),relative viability ([3]; first compound 0.1265 µM),relative viability ([3]; first compound 0.4 µM),relative viability ([3]; first compound 1.265 µM),relative viability ([3]; first compound 4 µM),relative viability ([4]; first compound 0.08 µM),relative viability ([4]; first compound 0.253 µM),relative viability ([4]; first compound 0.8 µM),relative viability ([4]; first compound 2.53 µM),relative viability ([4]; first compound 8 µM)
NCI-H2087,0.214,0.2,0.152,0.267,0.162,0.464,0.491,0.423,0.482,0.477,0.308,0.362,0.249,0.285,0.299,1.01,0.942,0.98,0.782,1.02
NCI-H2126,0.998,0.867,0.917,0.89,0.832,0.528,0.544,0.516,0.535,0.506,0.6,0.571,0.62,0.599,0.563,0.716,0.707,0.748,0.693,0.689
NCI-H2347,1.14,1.3,0.362,0.248,0.356,0.521,0.55,0.513,0.345,0.417,0.605,0.664,0.603,0.645,0.585,1.06,1,1.06,1.15,0.963
NCI-H2405,0.841,0.631,0.732,0.563,0.595,0.417,0.385,0.451,0.371,0.375,0.706,0.713,0.747,0.728,0.741,1.07,1,0.861,0.889,0.843
NCI-H3122,0.101,0.11,0.0776,0.0857,0.0976,0.411,0.379,0.399,0.36,0.288,0.4,0.449,0.377,0.541,0.421,1.07,1.06,0.984,1.06,0.987
PC-3 [JPC-3],0.733,0.71,0.672,0.671,0.628,0.503,0.475,0.459,0.497,0.423,0.831,0.889,0.854,0.846,0.761,0.927,0.999,0.982,0.928,0.937
PC-14,0.135,0.114,0.179,0.151,0.18,0.535,0.69,0.431,0.607,0.254,0.227,0.237,0.247,0.179,0.148,1.02,0.899,1.06,0.975,0.892
RERF-LC-KJ,1.13,1.14,1.26,1.17,0.715,0.404,0.374,0.462,0.453,0.353,0.63,0.709,0.684,0.765,0.616,0.896,0.806,0.931,0.791,0.846
SK-LU-1,0.225,0.248,0.191,0.199,0.212,0.649,0.568,0.614,0.553,0.43,0.672,0.656,0.744,0.665,0.69,1.26,1.19,1.37,1.02,1.16
SK-MES-1,0.835,0.791,0.74,0.772,0.74,0.688,0.624,0.69,0.65,0.605,0.36,0.462,0.421,0.445,0.398,1.12,1.04,1.05,1.07,1.08
SW 1573,0.287,0.185,0.204,0.151,0.106,0.371,0.368,0.395,0.424,0.231,0.593,0.497,0.547,0.637,0.37,0.903,0.759,0.718,0.792,0.844
UMC-11,1.02,0.834,1,0.996,0.894,0.352,0.319,0.333,0.335,0.349,0.606,0.432,0.59,0.679,0.624,1.25,0.807,1.21,0.998,0.955

# Source: the supplement of paper PMC10307832
